For series [1], the system named is CD4+ T cells from HIV-1-infected individuals. The experiment in a line: Cell viability (CellTiter-Blue, Zombie Violet) of ex vivo treated CD4+ T cells. It is filed as cell-based, human. The following applies: at the indicated concentrations (up to 500 nM). The source says:
FIGS. 15 A-G depict the structural formulae for AZ505, AZ506, and AZ391, and the reactivation of latent HIV-1 with SMYD2 inhibitor X2 (AZ391) in CD4^+ T cells from HIV-1 infected individuals. (A) Structures of each compound are shown. (B) Intracellular HIV-1 mRNA levels in CD4^+ T cells, obtained from an infected individual (#1036) and treated ex vivo with AZ391, JQ1 or a combination of both, in indicated concentrations, presented as fold induction relative to DMSO control. Activation with αCD3/αCD28-Dynabeads was performed as control. (C) Flow cytometry of T-cell activation markers CD69 and CD25 in the same experiment. For each treatment group, CD69^+ (left) and CD25^+ (right). Shown as percentage of positive cells relative to αCD3/αCD28-treated cells (D) Cell viability as measured by CellTiter-Blue® Cell Viability assay (Promega) and Zombie Violet Fixable Viability kit (BioLegend) and presented as percentage of DMSO control treated cells. Data points indicate average of three technical replicates of donor #1036. (E-G) Same experiments as in b-d but performed with CD4^+ T cells obtained from three additional individuals (2013, 2185, 2511) with a single concentration of AZ391 (500 nM). In f and g, average of the three biological replicates (±SD) is show. For (F), for each treatment group, CD69^+ (left) and CD25^+ (right).
For orientation: The colour change of resazurin is a common sign of viable cells or microbes.

The conditions of series [2]: cited from earlier work.
The test system of series [3] is latent HIV-1 in human lymphocyte aggregate cultures (HLAC) from tonsils. The experiment in a line: Ex vivo infected tonsil HLAC latency model, HIV-luciferase reporter virus. Format: cell-based. The conditions noted are these: in combination with JQ1. The procedure:
HLAC cells were isolated by Ficoll-Histopaque density gradient centrifugation of sheared tonsils from HIV-seronegative donors (Vanderbilt University Medical Center, Nashville, Tenn.). Isolated HLAC cells were counted, collected as pellets by centrifugation at 1500 rpm for 5 min at room temperature, and re-suspended in the appropriate volume of concentrated viral NL4.3-Luc supernatant. Typically, 50-100 ng of p24 Gag per […] HLAC were used. Spinoculations were performed in 96-well V-bottom plates in volumes of 200 μl or less. Cells and virus were centrifuged at 2000 rpm for 1.5-2 h at room temperature. After spinoculation, cells were pooled and cultured at 1×10^6 cells/ml in RPMI 1640 containing 10% FBS and supplemented with 5 μM Saquinavir (Sigma-Aldrich) for 3 days to prevent any residual spreading infection.
For reactivation of latent HIV-1 provirus, cells were counted and collected as pellets by centrifugation at 1500 rpm for 10 min. […] After 15 min of lysis, the luciferase activity in cell extracts was quantified with a Perkin Elmer EnSpire 2300 Multimode plate reader after mixing 20 μl of lysate with 100 μl of substrate (Luciferase Assay System-Promega). Relative light units (RLU) were normalized to protein content determined by Bradford assay (BioRad). Cell viability was measured with CellTiter-Blue Cell Viability Assay (Promega).

Molecules are shown by their SMILES.

On to `N#Cc1cc(C(=O)NCCCN2CCCC2)cc(-c2ccccc2N2CCN(CCc3c[nH]c4ccccc34)CC2)c1` [AZ391], for which, in series [1], the cell viability entry was “no impact on cell viability”. Besides, the cell permeability result in series [2] is listed as “cell-permeable”. Further, the figures for the “reactivation of latent HIV-1 (luciferase)” value in series [3] and in series [3] (listed as X2) were “Positive effects” and “reactivates latent HIV-1”, respectively.
